Data taken from the NIST ThermoML archive (doi:10.1016/j.fluid.2007.09.002).

Legend:
[1] = Liquid, Closed cell (Static) method
[2] = excess molar enthalpy (molar enthalpy of mixing); xn = mol fraction of the nth substance listed; conditions: 298.15 K, 101.3 kPa, Liquid, Flow calorimetry

CCCCOC [butyl methyl ether]
[1]
Conditions	vapor or sublimation pressure [kPa]
263.15 K	3.054
273.15 K	5.436
283.15 K	9.207
293.15 K	14.93
298.15 K	18.73
303.15 K	23.3
313.15 K	35.15
323.15 K	51.45
333.15 K	73.31
343.15 K	101.96

CCC#CCC [3-hexyne]
[1]
Conditions	vapor or sublimation pressure [kPa]
263.15 K	1.613
273.15 K	3.001
283.15 K	5.293
293.15 K	8.909
298.15 K	11.38
303.15 K	14.39
313.15 K	22.4
323.15 K	33.77
333.15 K	49.44
343.15 K	70.52

CCC#CCC [3-hexyne] + CCCCOCCCC
[2]
Conditions	excess molar enthalpy [kcal/mol]
x1 = 0.1599	0.00956
x1 = 0.2756	0.0143
x1 = 0.3989	0.0174
x1 = 0.496	0.0184
x1 = 0.5781	0.0182
x1 = 0.6579	0.0163
x1 = 0.7475	0.0136
x1 = 0.8783	0.00837

CC#CCCC [2-hexyne]
[1]
Conditions	vapor or sublimation pressure [kPa]
263.15 K	1.372
273.15 K	2.56
283.15 K	4.532
293.15 K	7.66
298.15 K	9.804
303.15 K	12.43
313.15 K	19.45
323.15 K	29.46
333.15 K	43.35
343.15 K	62.15

CC#CCCC [2-hexyne] + CCCCOC
[2]
Conditions	excess molar enthalpy [kcal/mol]
x1 = 0.1468	-0.0143
x1 = 0.3058	-0.0287
x1 = 0.4949	-0.039
x1 = 0.637	-0.0382
x1 = 0.7489	-0.0335
x1 = 0.8444	-0.0191
